# Measured values published in article PMC9404985, “Development of Dicationic Bisguanidine-Arylfuran Derivatives as Potent Agents against Gram-Negative Bacteria” (Antibiotics, 2022).
# What was measured:
# Trypanosoma cruzi = test system: Trypanosoma cruzi; set-up: method as in earlier work; settings: PubChem AID 1314398; read-out: effective against Trypanosoma cruzi; cited from earlier work
# [1] = test system: E. coli MG1655 (CGSC #6300); assay: Antibacterial resazurin assay, laboratory strain
# Plasmodium falciparum = test system: Plasmodium falciparum; set-up: method as in PMID 28674055; settings: erythrocyte stage; cited from earlier work
# [2] = test system: P. putida (NBRC/ATCC #100650); assay: Antibacterial resazurin assay, laboratory strain
# [3] = test system: K. pneumoniae (CCUG #58547); assay: Antibacterial activity against isolates (Omnilog, Biolog redox dye); format: cell-based, Klebsiella pneumoniae
# Description: (§1) The antibacterial activities of eight compounds (1, 3, 4, 6, 8, 10, 16, and 17) were tested against 10 different isolates of Gram-negative bacteria from human and other sources, two E. coli (CCUG #67180 and CCUG #17620/ATCC #25922, control strain), two K. pneumoniae (CCUG #58547 and CCUG #225T), two P. aeruginosa (CCUG #17619 and CCUG #59347), two A. baumannii (CCUG #57035 and CCUG #57250), E. cloacae (CCUG #6323T), and E. hormaechei (CCUG #58962) in a 96-well plate format. […] Bacterial mass from the ten isolates grown overnight on horse blood or Mueller–Hinton agar plates was suspended in ca-MH and adjusted to a final inoculum cell density of ~5 × 10^5 CFU/mL. For all assays, Biolog redox dye A diluted 100× from the stock solution was used for measurements of all ten isolates (up to a total volume of 120 µL per well). All plates included one well per isolate with only inoculum and dye but no test compound (i.e., positive control) and one well per isolate with inoculum, dye and DMSO diluted 1667×, corresponding to the DMSO concentration in the wells with the highest concentration of test compound. All measurements were performed using the Omnilog microplate reader (Biolog, Hayward, CA, USA) where the 96-well plates were read at 15 min intervals for a total of 24 h at 37 °C.
# [4] = test system: K. pneumoniae (CCUG #225T); assay: as above; format: cell-based, Klebsiella pneumoniae
# Description: (§2) The antibacterial activities of eight compounds (1, 3, 4, 6, 8, 10, 16, and 17) were tested against 10 different isolates of Gram-negative bacteria from human and other sources, two E. coli (CCUG #67180 and CCUG #17620/ATCC #25922, control strain), two K. pneumoniae (CCUG #58547 and CCUG #225T), two P. aeruginosa (CCUG #17619 and CCUG #59347), two A. baumannii (CCUG #57035 and CCUG #57250), E. cloacae (CCUG #6323T), and E. hormaechei (CCUG #58962) in a 96-well plate format. The compounds to test were 3-fold diluted in six steps in cation-adjusted Mueller-Hinton (ca-MH) broth to final concentrations spanning from 30 to 0.12 µM, i.e., a 1667–416,667 times dilution from the 50 mM stocks. Bacterial mass from the ten isolates grown overnight on horse blood or Mueller–Hinton agar plates was suspended in ca-MH and adjusted to a final inoculum cell density of ~5 × 10^5 CFU/mL. For all assays, Biolog redox dye A diluted 100× from the stock solution was used for measurements of all ten isolates (up to a total volume of 120 µL per well). All plates included one well per isolate with only inoculum and dye but no test compound (i.e., positive control) and one well per isolate with inoculum, dye and DMSO diluted 1667×, corresponding to the DMSO concentration in the wells with the highest concentration of test compound. All measurements were performed using the Omnilog microplate reader (Biolog, Hayward, CA, USA) where the 96-well plates were read at 15 min intervals for a total of 24 h at 37 °C.
# [5] = test system: A. baumannii (CCUG #57250); assay: as above; format: cell-based, Acinetobacter baumannii
# Description: as §2
# [6] = test system: E. hormaechei (CCUG #58962); assay: as above; format: cell-based, Enterobacter hormaechei
# Description: as §1
# [7] = test system: P. caledonica (NBRC/ATCC #102488); assay: Antibacterial resazurin assay, laboratory strain
# [8] = Cytotoxicity assay (PrestoBlue) HepG2; format: cell-based; settings: human, HepG2 cells (hepatoma cell line), 24 h incubation
# Description: The cytotoxicity levels of all compounds were evaluated against human Michigan Cancer Foundation-7 (MCF-7) and Hepatoma G2 cell line (HepG2) cell lines. MCF-7 is an extensively characterized breast cancer cell line isolated in 1970 [41], while HepG2 cells were derived from a hepatoma in 1975 [42]. Both cell lines grow robustly during in vitro culture and have been widely used for cytotoxicity testing. Cells of hepatic origin, such as HepG2, are of particular relevance for toxicity studies as many drugs accumulate in the liver during metabolic conversion. Cells were grown in Dulbecco’s Modified Eagle Medium supplemented with 10% fetal calf serum and kept in exponential growth, as previously reported. Before the assay, cells were reseeded into 96-well microtiter plates at a density allowing continued exponential growth and let to settle for 24 h. The compounds were added from a stock solution in DMSO, for a final concentration of 0.3% v/v of the solvent in the culture medium. After 24 h of incubation in presence of the compound, cell viability was assayed using PrestoBlue Cell Viability Reagent (resazurin-based solution, ThermoFisher, Waltham, MA, USA) according to the manufacturer’s instructions. […] Each assay contained a DMSO control at the equivalent starting concentration, positive control (uninhibited cell growth) and negative control (cell medium only). Survival was expressed as percentage of the solvent-only control. […] The Selectivity Index (SI) for each compound and bacterial strain was calculated as the ratio between the mean of the EC50 values for the two human cell lines and the EC50 for the bacterial strain in question ((EC50 MCF-7 + EC50 HepG2)/2)/EC50 bacterial strain).
# [9] = mean of MCF-7 and HepG2 EC50 over bacterial EC50, laboratory strain
# [10] = Klebsiella pneumoniae, CCUG58547, ca-MH broth, 24 h, 37 °C
# [11] = SI = ((EC50 MCF-7 + EC50 HepG2)/2)/EC50 bacterial strain
# [12] = Klebsiella pneumoniae, ca-MH broth, 24 h, 37 °C
# [13] = Enterobacter hormaechei, CCUG58962, ca-MH broth, 24 h, 37 °C
smiles,measurement,setting,value
"N=C(N)Nc1ccc(-c2ccc(-c3ccc(NC(=N)N)cc3Cl)o2)c(Cl)c1 [Compound 1, 2,5-Bis(2-chloro-4-guanidinophenyl)furan]",EC50,Trypanosoma cruzi,0.29 µM
same,EC50,"[1]; Escherichia coli, MG1655, 18 h, read-out: Eco EC50",64.8 µM
same,EC90,"[1]; Escherichia coli, MG1655, 18 h, read-out: Eco EC90",148 µM
same,Selectivity index E. coli,[1]; [9],0.6
same,EC50,Plasmodium falciparum,0.59 µM
same,EC50,"[2]; Pseudomonas putida, ATCC100650, 18 h, read-out: Ppu EC50, laboratory strain, 18 h, 37 °C, AlamarBlue",258 µM
same,EC90,"[2]; Pseudomonas putida, ATCC100650, 18 h, read-out: Ppu EC90",517 µM
same,Selectivity index P. putida,[2]; [9],0.2
same,EC50,[3]; [10],5.2 µM
same,EC90,[3]; [10],8 µM
same,Selectivity index K. pneumoniae (CCUG #58547),[3]; [11],7.5
same,EC50,[4]; [12],2.7 µM
same,EC90,[4]; [12],3.2 µM
same,Selectivity index K. pneumoniae (CCUG #225T),[4]; [11],14.4
same,EC90,"[5]; Acinetobacter baumannii, CCUG57250, 24 h, ca-MH broth, 24 h, 37 °C",6.6 µM
same,EC50,"[5]; Acinetobacter baumannii, CCUG57250, ca-MH broth, 24 h, 37 °C",4.4 µM
same,Selectivity index A. baumannii (CCUG #57250),[5]; [11],8.7
same,EC50,[6]; [13],7.7 µM
same,EC90,[6]; [13],9.1 µM
same,Selectivity index E. hormaechei (CCUG #58962),[6]; [11],5.0
same,EC50,"[7]; Paraburkholderia caledonica, ATCC102488, 18 h, read-out: Pcal EC50",20.3 µM
same,EC90,"[7]; Paraburkholderia caledonica, ATCC102488, 18 h, read-out: Pcal EC90",136 µM
same,Selectivity index P. caledonica,[7]; [9],1.9
same,EC50 at 24 h,[8],43.4 µM
